# Reference: US12263171B2, “7-, 8-, and 10-substituted amino triazolo quinazoline derivatives as adenosine receptor antagonists, pharmaceutical compositions and their use” (Merck Sharp & Dohme LLC, priority 2018, dated 2025)
# Tests used:
# [1] = target: T1, human A2b adenosine receptor (Homo sapiens (Human), UniProt P29275); experiment: A2B antagonism in cAMP cell-based assay (LANCE cAMP, HEK293 cells, 600 nM adenosine); conditions: for IC50: values marked *: cAMP cell-based assay
# [2] = target: T2, human A2a adenosine receptor (Homo sapiens (Human), UniProt P29274); experiment: A2A antagonism in cAMP cell-based assay (LANCE cAMP, HEK293 cells, 300 nM adenosine); conditions: values marked *: cAMP cell-based assay
# T2 sequence (P29274 whole entry): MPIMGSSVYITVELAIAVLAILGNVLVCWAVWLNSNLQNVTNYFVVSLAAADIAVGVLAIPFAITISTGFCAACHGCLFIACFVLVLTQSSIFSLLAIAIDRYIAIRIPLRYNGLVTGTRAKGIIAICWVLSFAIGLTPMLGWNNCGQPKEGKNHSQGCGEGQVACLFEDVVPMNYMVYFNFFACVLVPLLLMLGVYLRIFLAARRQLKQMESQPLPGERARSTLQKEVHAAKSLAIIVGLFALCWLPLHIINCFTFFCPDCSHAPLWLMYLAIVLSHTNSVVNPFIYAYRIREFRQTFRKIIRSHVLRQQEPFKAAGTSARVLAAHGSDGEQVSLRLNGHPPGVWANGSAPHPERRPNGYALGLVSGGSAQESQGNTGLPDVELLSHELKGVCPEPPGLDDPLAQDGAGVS
# Description: Measurement of A2A and A2B Antagonism in cAMP Cell-Based Assay
# All subsequent liquid additions were performed using a multichannel pipettor. […] After this time 5 μL of either 300 nM or 600 nM adenosine (Sigma Cat. No. A9251) for A2A and A2B respectively was added and incubated for 30 minutes at 37° C. and 5% CO2 in a humidified environment. At this time detection mix was prepared by combining the LANCE Eu-W8044 labeled streptavidin and. Biotin-cAMP in detection buffer according to the manufacturers protocol. […] Curve fitting of the percent effect data versus the log of compound concentration used a 4-parameter concentration response curve fitting algorithm to calculate IC50 values.
# [3] = target: T1, human A2b adenosine receptor; experiment: A2b radioligand filtration binding assay (tritiated proprietary A2b antagonist, HEK293 membranes); conditions: @ 10000 nM, unstarred
# Method in brief: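 Displacement of a tritiated proprietary A2b antagonist from membranes of HEK293 cells recombinantly expressing human A2b receptor, measured by filtration and scintillation counting. Percent effect was normalized to total and non-specific binding and fitted with a 4-parameter logistic to give IC50.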
# [4] = target: T2, human A2a adenosine receptor; experiment: A2a receptor affinity radioligand binding assay ([3H] SCH58261, membranes from HEK293 or CHO cells); conditions: unstarred values: radioligand binding
# Method in brief: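 Displacement of tritiated SCH58261 (working dilution 4 nM) from recombinant human A2a receptor membranes (HEK293 or CHO), 60 min at room temperature in Tris pH 7.4/MgCl2 buffer after 15–30 min compound preincubation. Scintillation counting after filtration; normalized percent effect fitted 4-parameter logistic for IC50.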
# T1 sequence (P29275 whole entry): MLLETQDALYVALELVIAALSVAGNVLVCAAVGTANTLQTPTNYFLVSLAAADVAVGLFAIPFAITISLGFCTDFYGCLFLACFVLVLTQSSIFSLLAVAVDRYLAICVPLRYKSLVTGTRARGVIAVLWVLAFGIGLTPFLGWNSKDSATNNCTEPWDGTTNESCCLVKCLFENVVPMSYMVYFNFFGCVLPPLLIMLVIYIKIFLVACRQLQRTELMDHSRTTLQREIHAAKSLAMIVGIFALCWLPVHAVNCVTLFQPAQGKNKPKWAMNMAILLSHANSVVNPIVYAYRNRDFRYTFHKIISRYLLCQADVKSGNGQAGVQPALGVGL
SMILES,IC50 [1],IC50 [2],A2B binding % inh. @ 10000 nM [3],"*A2B cAMP % inh. @ 10000 nM ([1]; @ 10000 nM, marked *)",IC50 [4]
"COc1ccc2c(c1)nc(N)n1nc([C@@H]3C[C@@H](C)CN(c4cnn(C(C)(C)CO)c4)C3)nc21 [Example 222D, 2-(4-((3R,5R)-3-(5-amino-8-methoxy-[1,2,4]triazolo[1,5-c]quinazolin-2-yl)-5-methylpiperidin-1-yl)-1H-pyrazol-1-yl)-2-methylpropan-1-ol]",0.655 µM,0.0333 µM,,,
"COc1cccc2c1nc(N)n1nc([C@H]3CC[C@@H](C)N(c4cn(CC(C)(C)O)nc4C)C3)nc21 [Example 145D, 1-(4-((2R,5S)-5-(5-amino-7-methoxy-[1,2,4]triazolo[1,5-c]quinazolin-2-yl)-2-methylpiperidin-1-yl)-3-methyl-1H-pyrazol-1-yl)-2-methylpropan-2-ol]",0.461 µM,0.0303 µM,,,
"COc1ccc2c(c1)nc(N)n1nc([C@H]3C[C@@H](C)CN(c4cn([C@H](C)[C@@H](C)O)nc4C)C3)nc21 [Example 219C, (2R,3R)-3-(4-((3S,5R)-3-(5-amino-8-methoxy-[1,2,4]triazolo[1,5-c]quinazolin-2-yl)-5-methylpiperidin-1-yl)-3-methyl-1H-pyrazol-1-yl)butan-2-ol]",5.65 µM,0.0386 µM,,,
"COc1cccc2c1nc(N)n1nc([C@@H]3CCCN(c4cc(C(F)(F)F)ccn4)C3)nc21 [Example 116, (R)-7-melhoxy-2-(1-(4-(trifluoromethyl)pyridin-2-yl)piperidin-3-yl)-[1,2,4]triazolo[1,5-c]quinazolin-5-amine]",,0.0405 µM,18% inh. @ 10000 nM,,
"COc1cccc2c1nc(N)n1nc(C3CCC(C)N(c4cnn(C(C)(C)CO)c4)C3)nc21 (single isomer, unassigned) [Example 146C]",2.2 µM,0.101 µM,,,
"COc1ccc2c(c1)nc(N)n1nc([C@@H]3C[C@H](C)CN(c4cn([C@@H](C)[C@H](C)O)nc4C)C3)nc21 [Example 219D, (2S,3S)-3-(4-((3R,5S)-3-(5-amino-8-methoxy-[1,2,4]triazolo[1,5-c]quinazolin-2-yl)-5-methylpiperidin-1-yl)-3-methyl-1H-pyrazol-1-yl)butan-2-ol]",,0.0443 µM,,33% inh. @ 10000 nM*,
"COc1ccc2c(c1)nc(N)n1nc([C@H]3C[C@H](C)CN(c4cnn(C(C)(C)CO)c4)C3)nc21 [Example 222B, 2-(4-((3S,5S)-3-(5-amino-8-methoxy-[1,2,4]triazolo[1,5-c]quinazolin-2-yl)-5-methylpiperidin-1-yl)-1H-pyrazol-1-yl)-2-methylpropan-1-ol]",1.72 µM,0.0638 µM,,,
"COc1ccc2c(c1)nc(N)n1nc([C@@H]3C[C@@H](C(F)(F)F)CN(c4cnn(CC(C)(C)O)c4)C3)nc21 (single isomer, unassigned) [Example 218B, 1-(4-((3R,5R or 3S,5S)-3-(5-amino-8-methoxy-[1,2,4]triazolo[1,5-c]quinazolin-2-yl)-5-(trifluoromethyl)piperidin-1-yl)-1H-pyrazol-1-yl)-2-methylpropan-2-ol]",> 10 µM,0.635 µM,,,
"COc1cccc2c1nc(N)n1nc([C@@H]3CCCN(c4ccc(C(F)(F)F)cn4)C3)nc21 [Example 118, (R)-7-methoxy-2-(1-(5-(trifluoromethyl)pyridin-2-yl)piperidin-3-yl)-[1,2,4]triazolo[1,5-c]quinazolin-5-amine]",0.105 µM,0.0106 µM,,,
"COc1cccc2c1nc(N)n1nc([C@@H]3CCCN(c4cnc(C5CC5)n4C)C3)nc21 [Example 84, (R)-2-(1-(2-cyclopropyl-1-methyl-1H-imidazol-5-yl)piperidin-3-yl)-7-methoxy-[1,2,4]triazolo[1,5-c]quinazolin-5-amine]",0.187 µM,,,,0.0016 µM
CCn1cc(N2C[C@H](c3nc4c5cccc(OC)c5nc(N)n4n3)CC(F)(F)C2)cn1 [Example 153B],0.677 µM,,,,0.001 µM
"CC[C@H]1CC[C@@H](c2nc3c4cccc(OC)c4nc(N)n3n2)CN1c1cnn(CC(C)(C)O)c1 [Example 216C, 1-(4-((2S,5R)-5-(5-amino-7-methoxy-[1,2,4]triazolo[1,5-c]quinazolin-2-yl)-2-ethylpiperidin-1-yl)-1H-pyrazol-1-yl)-2-methylpropan-2-ol]",0.292 µM,,,,0.0235 µM
"COc1cccc2c1nc(N)n1nc([C@@H]3CCCN(c4cc(C(F)(F)F)n(C)n4)C3)nc21 [Example 78, (R)-7-methoxy-2-(1-(1-methyl-5-(trifluoromethyl)-1H-pyrazol-3-yl)piperidin-3-yl)-[1,2,4]triazolo[1,5-c]quinazolin-5-amine]",2.5 µM,,,,0.0033 µM
"CCn1ncc(N2CCC[C@@H](c3nc4c5cccc(OC)c5nc(N)n4n3)C2)c1C [Example 15, (R)-2-(1-(1-ethyl-5-methyl-1H-pyrazol-4-yl)piperidin-3-yl)-7-methoxy-[1,2,4]triazolo[1,5-c]quinazolin-5-amine]",0.147 µM,,,,0.0005 µM
"COc1ccc2c(c1)nc(N)n1nc([C@@H]3CCCN(c4cnn(C5CC5)c4)C3)nc21 [Example 184, (R)-2-(1-(1-cyclopropyl-1H-pyrazol-4-yl)piperidin-3-yl)-8-methoxy-[1,2,4]triazolo[1,5-c]quinazolin-5-amine]",0.141 µM,,,,0.004 µM
"CCn1ccc(N2CCC[C@@H](c3nc4c5cccc(OC)c5nc(N)n4n3)C2)cc1=O [Example 91, (R)-4-(3-(5-amino-7-methoxy-[1,2,4]triazolo[1,5-c]quinazolin-2-yl)piperidin-1-yl)-1-ethylpyridin-2(1H)-one]",0.775 µM,,,,0.0018 µM
"COc1ccc2c(c1)nc(N)n1nc([C@@H]3CC[C@H](C)N(c4cnn(C(C)(C)CO)c4)C3)nc21 [Example 214, 2-(4-((2S,5R)-5-(5-amino-8-methoxy-[1,2,4]triazolo[1,5-c]quinazolin-2-yl)-2-methylpiperidin-1-yl)-1H-pyrazol-1-yl)-2-methylpropan-1-ol]",0.0028 µM,,,,0.0002 µM
